Assay results taken from the NIST ThermoML archive (doi:10.1016/j.fluid.2006.08.007).
± gives the expanded uncertainty stated by the source.

Legend:
[1] = Liquid, Closed cell (Static) method
[2] = excess molar enthalpy (molar enthalpy of mixing); xn = mol fraction of the nth substance listed; conditions: 298.15 K, 101 kPa, Liquid, Flow calorimetry

C#CCCCC [1-hexyne]
[1]
Conditions | vapor or sublimation pressure [kPa]
263.15 K | 2.721 ± 0.013
273.15 K | 4.893 ± 0.017
283.15 K | 8.363 ± 0.023
293.15 K | 13.67 ± 0.032
298.15 K | 17.22 ± 0.039
303.15 K | 21.5 ± 0.047
313.15 K | 32.65 ± 0.066
323.15 K | 48.09 ± 0.093
333.15 K | 68.9 ± 0.13
343.15 K | 96.32 ± 0.17

COC(C)(C)C [2-methoxy-2-methylpropane]
[1]
Conditions | vapor or sublimation pressure [kPa]
263.15 K | 6.252 ± 0.02
273.15 K | 10.64 ± 0.027
283.15 K | 17.31 ± 0.039
293.15 K | 27.06 ± 0.056
298.15 K | 33.39 ± 0.068
303.15 K | 40.86 ± 0.082
313.15 K | 59.81 ± 0.11
323.15 K | 85.15 ± 0.16
333.15 K | 118.27 ± 0.21
343.15 K | 160.66 ± 0.28

CC#CCCC [2-hexyne] + COC(C)(C)C
[2]
Conditions | excess molar enthalpy [kcal/mol]
x1 = 0.1527 | -0.0143 ± 0.00239
x1 = 0.2965 | -0.0263 ± 0.00239
x1 = 0.4852 | -0.0359 ± 0.00239
x1 = 0.6624 | -0.0351 ± 0.00239
x1 = 0.7708 | -0.0287 ± 0.00239
x1 = 0.8513 | -0.0203 ± 0.00239

CC#CCCC [2-hexyne]
[1]
Conditions | vapor or sublimation pressure [kPa]
263.15 K | 1.393 ± 0.01
273.15 K | 2.608 ± 0.013
283.15 K | 4.631 ± 0.016
293.15 K | 7.845 ± 0.023
298.15 K | 10.05 ± 0.027
303.15 K | 12.75 ± 0.033
313.15 K | 19.99 ± 0.047
323.15 K | 30.32 ± 0.067
333.15 K | 44.66 ± 0.095
343.15 K | 64.09 ± 0.13

C#CCCCC [1-hexyne] + COC(C)(C)C
[2]
Conditions | excess molar enthalpy [kcal/mol]
x1 = 0.1111 | -0.0332 ± 0.00239
x1 = 0.2113 | -0.0641 ± 0.00239
x1 = 0.3134 | -0.0884 ± 0.00263
x1 = 0.389 | -0.1 ± 0.00263
x1 = 0.4482 | -0.104 ± 0.00263
x1 = 0.5204 | -0.102 ± 0.00263
x1 = 0.6206 | -0.0901 ± 0.00263
x1 = 0.7263 | -0.0712 ± 0.00239
x1 = 0.8179 | -0.0526 ± 0.00239
x1 = 0.9011 | -0.0339 ± 0.00239
